Source: paper PMC6268855, “New Trifluoromethyl Triazolopyrimidines as Anti-Plasmodiumfalciparum Agents” (Molecules, 2012)

Experiments:
Type in all cases: cell-based
[1] = system: Plasmodium falciparum chloroquine-resistant W2 clone; test: anti-HRP2 test on P. falciparum-infected erythrocytes; details: W2 clone
Protocol: (§1) Briefly, the parasites were kept as described at 37 °C in human erythrocytes (A^+) in complete medium (RPMI 1640 supplemented with 10% human sera blood group A^+, 2% glutamine, and 7.5% NaHCO3) either in Petri dishes in a candle jar or in 25-cm culture flasks in an environment containing a gas mixture atmosphere (3% O2, 5% CO2 and 91% N2). Before testing, the ring-stage parasites were synchronized by sorbitol; the suspension was adjusted for parasitemia and hematocrit as described below for each test used.
(§2) The effects of compounds against the W2 P. falciparum blood cultures were evaluated through incorporation of ^3H hypoxanthine (Perkin Elmer, Waltham, MA, USA) by the parasites. Alternatively, compound effects were also examined using monoclonal antibodies to a commercially available parasite histidine and alanine-rich protein (HRP2) (MPFM ICLLAB-55A®, MPFG55P ICLLAB®, Immunology Consultants Laboratory Inc. (ICL), Portland, OR, USA), as described previously. The [3H]-hypoxanthine assay was performed with 1% of parasitemia and 1% of hematocrit, and the level of isotope incorporation was read in a beta-counter (Perkin Elmer). The anti-HRP2 test was performed with 0.05% parasitemia and 1.5% hematocrit, and the quantification of protein was determined using a specific read at 450 nm in a spectrophotometer (SpectraMax340PC^384, Molecular Devices, Sunnyvale, CA, USA). Drug activities were expressed by the half-maximal inhibitory dose (IC50) compared to the drug-free controls and estimated using the curve-fitting software Origin 8.0 (OriginLab Corporation, Northampton, MA, USA).

[2] = system: Plasmodium falciparum chloroquine-resistant W2 clone; test: [3H]-hypoxanthine incorporation assay on P. falciparum-infected erythrocytes; details: Erythrocyte, W2 clone, 1% parasitemia, 1% hematocrit, read-out: IC50 Plasmodium Falciparum Hypoxanthine
Protocol: as §1, §2

[3] = system: human hepatoma cell line (HepG2); details: MTT, 24 h incubation
Protocol: For in vitro cytotoxicity experiments, the cell monolayer was trypsinized, washed with culture medium, distributed in a flat-bottomed 96-well plate (5 × 10^3 cells/well), and finally incubated for 18 h at 37 °C for cell adherence.
For cytotoxicity testing, we used the (3-(4,5-dimethylthiazol-2-yl)-2,5-diphenyltetrazolium bromide (MTT) assay, performed as described in the literature. The HepG2 cell line was incubated with 20 µL of the compounds in different concentrations (200–25 µg/mL) for 24 h in an atmosphere of 5% CO2 at 37 °C.
For the MTT assay, which evaluates mitochondrial viability, 20 µL of MTT solution (5 mg/mL) was added, and the plates were incubated for an additional 3 h. After incubation, the supernatant was carefully removed from the wells, followed by addition of 100 µL DMSO with thorough mixing. Optical densities at 570 and 630 nm (background) were determined by an ELISA reader.
Cell viability was expressed as the percentage of control absorbance obtained in untreated cells after subtracting the absorbance from appropriate background. Lastly, the minimum lethal dose for 50% of the cells (MLD50) was determined as previously described in the literature. The ratio between MLD50 and drug activity (IC50) in vitro was used to determine the selectivity index (SI).

IC50 ([1]; Plasmodium falciparum, Erythrocyte, 0.05% parasitemia, 1.5% hematocrit, read-out: IC50 Plasmodium Falciparum Anti-HRP2): 73 ± 17 µM
IC50 [2]: 39.1 µM
MDL50 HepG2 [3]: >558 µM
SMILES: CCN(CC)CCCC(C)Nc1cc(C)nc2nc(C(F)(F)F)nn12 (stereo not shown) [Compound 29, 5-Methyl-7-N'-(N,N-diethylpentane-1,4-diamine)-2-(trifluoromethyl)[1,2,4]triazolo[1,5-a]pyrimidine]
activity class against P. falciparum ([1]; class by IC50): Inactive
